Results from ChEMBL document CHEMBL1127263, “Synthesis of B-NOR-4-AZA-5-androstane compound as 5-reductase inhibitor” (Bioorg Med Chem Lett, 1994).

Molecular target: Steroid 5-alpha-reductase (Rattus norvegicus) (UniProt P24008+P31214)
Experiment: Inhibition of rat Steroid 5-alpha-reductase was determined at 10e-8 M concentration
Assay type: protein assay

Chain of Steroid 5-alpha-reductase (Rattus norvegicus) (P24008 whole entry, looked up): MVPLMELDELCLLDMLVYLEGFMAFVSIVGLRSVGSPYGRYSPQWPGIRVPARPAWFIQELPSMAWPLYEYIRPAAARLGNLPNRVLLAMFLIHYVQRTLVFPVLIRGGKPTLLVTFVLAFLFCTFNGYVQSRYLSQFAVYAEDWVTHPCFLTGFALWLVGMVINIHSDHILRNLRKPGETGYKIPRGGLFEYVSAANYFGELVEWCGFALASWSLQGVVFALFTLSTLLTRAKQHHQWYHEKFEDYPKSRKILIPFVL
Chain of Steroid 5-alpha-reductase (Rattus norvegicus) (P31214 whole entry, looked up): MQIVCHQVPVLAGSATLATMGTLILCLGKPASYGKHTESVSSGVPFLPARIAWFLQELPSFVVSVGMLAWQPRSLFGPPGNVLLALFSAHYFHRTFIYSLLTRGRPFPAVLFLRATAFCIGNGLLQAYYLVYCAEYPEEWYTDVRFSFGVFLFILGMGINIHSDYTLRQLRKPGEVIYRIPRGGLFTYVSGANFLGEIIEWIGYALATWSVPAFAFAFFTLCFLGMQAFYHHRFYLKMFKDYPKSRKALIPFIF

inhibition: 63%
SMILES: CC12CCC3C(C[C@H]4NC(=O)CCC34C)C1CCC2C(=O)NC(c1ccccc1)c1ccccc1 (stereo partly specified)
